For one assay, the target named is T1, ERRα (Homo sapiens, UniProt P11474).
T1 construct: expressed in transfected cells; host or cells: HEK293
T1 sequence (P11474 1-423): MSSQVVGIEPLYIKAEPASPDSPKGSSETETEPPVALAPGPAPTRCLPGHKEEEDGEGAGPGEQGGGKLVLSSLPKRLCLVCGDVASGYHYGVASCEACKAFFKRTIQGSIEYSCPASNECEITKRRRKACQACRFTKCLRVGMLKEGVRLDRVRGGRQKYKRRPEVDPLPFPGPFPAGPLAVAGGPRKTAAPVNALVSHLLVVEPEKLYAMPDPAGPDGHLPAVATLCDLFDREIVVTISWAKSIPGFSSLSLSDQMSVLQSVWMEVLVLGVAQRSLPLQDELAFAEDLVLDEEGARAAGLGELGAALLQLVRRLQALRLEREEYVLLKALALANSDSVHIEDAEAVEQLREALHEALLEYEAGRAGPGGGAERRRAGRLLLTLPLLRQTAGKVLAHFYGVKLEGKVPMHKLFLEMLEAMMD
Description: ERRE luciferase reporter assay in HEK293 cells transfected with pcDNA3.1 ERRα. In kind it is cell-based. Further details: key to EC50 (ERRα) μM: * <1 μM; ** 1-5 μM; *** >5 μM; i.a. (inactive). The note with it: HEK293 cells transfected with ERRE reporter construct and pcDNA3.1 ERRα; compound for 24 hours; luciferase activity. The procedure: (§1) HEK293 cells were maintained in Dulbecco's modified Eagles medium (DMEM) supplemented with 10% fetal bovine serum at 37° C. under […]. […] Cells were transfected with ERRE reporter construct and pcDNA3.1 ERRα or ERRγ. Twenty-four-hours post-transfection, the cells were treated with vehicle or compound (various concentrations) for 24 hours (4 wells per dose). Luciferase activity was measured using the One-Glo Tox luciferase reporter assay system (Promega) and EC50s were calculated using GraphPad Prism software.

For a further assay, the target named is T2, ERRγ (Homo sapiens, UniProt P62508).
T2 construct: expressed in transfected cells; host or cells: HEK293
T2 sequence (P62508 1-458): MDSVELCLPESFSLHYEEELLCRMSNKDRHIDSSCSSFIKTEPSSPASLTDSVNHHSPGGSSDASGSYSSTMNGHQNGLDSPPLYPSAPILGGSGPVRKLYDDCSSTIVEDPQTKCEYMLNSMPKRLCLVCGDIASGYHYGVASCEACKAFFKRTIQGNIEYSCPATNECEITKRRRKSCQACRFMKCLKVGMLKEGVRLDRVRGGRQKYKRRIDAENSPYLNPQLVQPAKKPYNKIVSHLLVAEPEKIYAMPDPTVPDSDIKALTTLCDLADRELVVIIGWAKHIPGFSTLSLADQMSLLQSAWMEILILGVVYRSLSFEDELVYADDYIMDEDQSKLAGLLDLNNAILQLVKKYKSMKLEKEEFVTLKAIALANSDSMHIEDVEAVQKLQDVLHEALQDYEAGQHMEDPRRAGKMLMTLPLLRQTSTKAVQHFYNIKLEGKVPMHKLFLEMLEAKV
As to the kind of experiment: ERRE luciferase reporter assay in HEK293 cells transfected with pcDNA3.1 ERRγ. Type of assay: cell-based. The arrangement: key to EC50 (ERRγ) μM: * <1 μM; ** 1-5 μM; *** >5 μM; i.a. (inactive). The note with it: HEK293 cells transfected with ERRE reporter construct and pcDNA3.1 ERRγ; compound for 24 hours; luciferase activity. The protocol:
as §1
On the technique in general: A reporter such as luciferase makes a cellular process visible.

The text below walks through data of patent US20260274807A1 (University of Health Sciences and Pharmacy in St. Louis, priority 2023, published 2026).

In general, EC50 refers to the concentration needed to bring the measured effect to its halfway point.

With `COc1ccc(-c2nnc(-c3cccc(C(F)(F)F)c3)o2)cc1`, the figures for the 50% effective concentration (EC50) at ERRα and on ERRγ were 1000 to 5000 nM and above 5000 nM, respectively.

With `c1ccc(-c2nnc(-c3ccccc3)o2)cc1` [Entry 1], the half-maximal effective concentration (EC50) at ERRα and on ERRγ was below 1000 nM throughout. In the case of `Clc1ccc(-c2nnc(-c3ccccc3)o2)cc1` [Entry 2], the EC50 at ERRα and on ERRγ was below 1000 nM throughout. As for `c1ccc(-c2nnc(-c3cccs3)o2)cc1` [Entry 3], the EC50 at ERRα and at ERRγ was below 1000 nM in each case. On to `Cc1ccc(-c2nnc(-c3ccccc3)o2)cc1` [Entry 4, 2-phenyl-5-(p-tolyl)-1,3,4-oxadiazole], for which the concentration giving a half-maximal response (EC50) on ERRα and at ERRγ was below 1000 nM each time. With `COc1ccc(-c2nnc(-c3ccc(Br)cc3)o2)cc1` [Entry 5], the EC50 on ERRα and on ERRγ was below 1000 nM in each case. As for `Clc1ccc(-c2nnc(-c3ccc(Cl)cc3)o2)cc1` [Entry 6], the EC50 at ERRα and at ERRγ was below 1000 nM throughout. Turning to `O=[N+]([O-])c1ccc(-c2nnc(-c3ccccc3)o2)cc1` [Entry 7, 2-(4-nitrophenyl)-5-phenyl-1,3,4-oxadiazole], the EC50 at ERRα and on ERRγ was below 1000 nM throughout.

In the case of `Cc1ccccc1-c1nnc(-c2ccccc2)o1` [Entry 8], the EC50 at ERRα and on ERRγ was below 1000 nM in each case. Consider `Brc1ccc(-c2nnc(-c3ccccc3)o2)cc1` [Entry 9], for which the half-maximal effective concentration (EC50) on ERRα and at ERRγ was below 1000 nM throughout.

As to `O=[N+]([O-])c1ccc(-c2nnc(-c3ccccc3[N+](=O)[O-])o2)cc1` [Entry 11, 2-(2-nitrophenyl)-5-(4-nitrophenyl)-1,3,4-oxadiazole], the EC50 on ERRα and at ERRγ was 1000 to 5000 nM each time. In the case of `O=[N+]([O-])c1ccc(-c2nnc(-c3cccc([N+](=O)[O-])c3)o2)cc1` [Entry 12, 2-(3-nitrophenyl)-5-(4-nitrophenyl)-1,3,4-oxadiazole], the EC50 on ERRα and at ERRγ was 1000 to 5000 nM each time.

With `O=[N+]([O-])c1ccc(-c2nnc(-c3ccc([N+](=O)[O-])cc3)o2)cc1` [Entry 13, 2,5-bis(4-nitrophenyl)-1,3,4-oxadiazole], the half-maximal effective concentration (EC50) on ERRα and on ERRγ was 1000 to 5000 nM each time. In the case of `c1ccc(-c2nnc(-c3ccc4ccccc4n3)o2)cc1` [Entry 14, 2-phenyl-5-(quinolin-2-yl)-1,3,4-oxadiazole], the concentration for a half-maximal effect (EC50) on ERRα and at ERRγ was above 5000 nM throughout. For the compound `c1ccc(-c2nnc(-c3ccnc4ccccc34)o2)cc1` [Entry 15, 2-phenyl-5-(quinolin-4-yl)-1,3,4-oxadiazole], the “EC50 (ERRα) μM” value on ERRα was “i.a”. Further, the “EC50 (ERRγ) μM” value on ERRγ is recorded as “i.a”. For the compound `O=[N+]([O-])c1ccccc1Cc1nnc(-c2ccc(C(F)(F)F)cc2)o1` [Entry 16, 2-(2-nitrobenzyl)-5-(4-(trifluoromethyl)phenyl)-1,3,4-oxadiazole], the EC50 on ERRα and on ERRγ was below 1000 nM in each case. `COc1ccc(-c2nnc(-c3ccco3)o2)cc1` [Entry 18, 2-(furan-2-yl)-5-(4-methoxyphenyl)-1,3,4-oxadiazole]: the concentration giving a half-maximal response (EC50) on ERRα and at ERRγ was below 1000 nM each time. As to `COc1ccc(-c2nnc(-c3ccc(C)o3)o2)cc1` [Entry 19, 2-(4-methoxyphenyl)-5-(5-methylfuran-2-yl)-1,3,4-oxadiazole], the half-maximal effective concentration (EC50) on ERRα and on ERRγ was below 1000 nM throughout. With `COc1ccc(-c2nnc(-c3cccs3)o2)cc1` [Entry 20, 2-(4-methoxyphenyl)-5-(thiophen-2-yl)-1,3,4-oxadiazole], the EC50 on ERRα and at ERRγ was below 1000 nM each time.

Regarding `COc1ccc(-c2nnc(-c3ccc(N(C)C)cc3)o2)cc1` [Entry 21, 4-(5-(4-methoxyphenyl)-1,3,4-oxadiazol-2-yl)-N,N-dimethylaniline], the concentration for a half-maximal effect (EC50) at ERRα and at ERRγ was 1000 to 5000 nM in each case. In the case of `COc1ccc(-c2nnc(-c3ccnc4ccccc34)o2)cc1` [Entry 22, 2-(4-methoxyphenyl)-5-(quinolin-4-yl)-1,3,4-oxadiazole], the concentration giving a half-maximal response (EC50) at ERRα and on ERRγ was below 1000 nM in each case. In the case of `COc1ccc(-c2nnc(-c3ccc4ccccc4n3)o2)cc1` [Entry 23, 2-(4-methoxyphenyl)-5-(quinolin-2-yl)-1,3,4-oxadiazole], the half-maximal effective concentration (EC50) on ERRα and on ERRγ was below 1000 nM each time. In the case of `COc1ccc(-c2nnc(-c3ccccn3)o2)cc1` [Entry 24, 2-(4-methoxyphenyl)-5-(pyridin-2-yl)-1,3,4-oxadiazole], the “EC50 (ERRα) μM” value at ERRα is reported as “i.a”. Also, the “EC50 (ERRγ) μM” value at ERRγ is reported as “i.a”. In the case of `COc1ccc(-c2nnc(-c3cccc([N+](=O)[O-])c3)o2)cc1` [Entry 26, 2-(4-methoxyphenyl)-5-(3-nitrophenyl)-1,3,4-oxadiazole], the figures for the EC50 on ERRα and at ERRγ were 1000 to 5000 nM and below 1000 nM, respectively.

Consider `COc1ccc(-c2nnc(-c3ccccc3Cl)o2)cc1` [Entry 28, 2-(2-chlorophenyl)-5-(4-methoxyphenyl)-1,3,4-oxadiazole], for which the half-maximal effective concentration (EC50) on ERRα and on ERRγ was below 1000 nM throughout. Turning to `COc1ccc(-c2nnc(-c3cccc(OC)c3)o2)cc1` [Entry 29, 2-(3-methoxyphenyl)-5-(4-methoxyphenyl)-1,3,4-oxadiazole], the EC50 on ERRα and at ERRγ was below 1000 nM throughout.

Turning to `COc1ccc(-c2nnc(-c3ccc(OC)cc3)o2)cc1` [Entry 30, 2,5-bis(4-methoxyphenyl)-1,3,4-oxadiazole], the concentration giving a half-maximal response (EC50) at ERRα and at ERRγ was below 1000 nM in each case. With `Cc1ccc(-c2nnc(-c3ccco3)o2)cc1` [Entry 31, 2-(furan-2-yl)-5-(p-tolyl)-1,3,4-oxadiazole], the EC50 at ERRα and at ERRγ was below 1000 nM in each case.

On to `Cc1ccc(-c2nnc(-c3ccc(C)o3)o2)cc1` [Entry 32, 2-(5-methylfuran-2-yl)-5-(p-tolyl)-1,3,4-oxadiazole], for which the EC50 at ERRα and at ERRγ was below 1000 nM in each case. With `Cc1ccc(-c2nnc(-c3cccs3)o2)cc1` [Entry 33, 2-(thiophen-2-yl)-5-(p-tolyl)-1,3,4-oxadiazole], the EC50 on ERRα and on ERRγ was below 1000 nM throughout. As for `Cc1ccc(-c2nnc(-c3ccnc4ccccc34)o2)cc1` [Entry 34, 2-(quinolin-4-yl)-5-(p-tolyl)-1,3,4-oxadiazole], the EC50 at ERRα and at ERRγ was below 1000 nM throughout. As for `Cc1ccc(-c2nnc(-c3ccccn3)o2)cc1` [Entry 36, 2-(pyridin-2-yl)-5-(p-tolyl)-1,3,4-oxadiazole], the EC50 at ERRα and at ERRγ was below 1000 nM each time. For the compound `Cc1ccc(-c2nnc(-c3ccccc3[N+](=O)[O-])o2)cc1` [Entry 37, 2-(2-nitrophenyl)-5-(p-tolyl)-1,3,4-oxadiazole], the 50% effective concentration (EC50) at ERRα and on ERRγ was below 1000 nM in each case. Consider `Cc1ccc(-c2nnc(-c3cccc([N+](=O)[O-])c3)o2)cc1` [Entry 38, 2-(3-nitrophenyl)-5-(p-tolyl)-1,3,4-oxadiazole], for which the EC50 at ERRα and at ERRγ was below 1000 nM each time. On to `Cc1ccc(-c2nnc(-c3ccc([N+](=O)[O-])cc3)o2)cc1` [Entry 39, 2-(4-nitrophenyl)-5-(p-tolyl)-1,3,4-oxadiazole], for which the concentration for a half-maximal effect (EC50) on ERRα and on ERRγ was below 1000 nM in each case. In the case of `Cc1ccc(-c2nnc(-c3ccccc3Cl)o2)cc1` [Entry 40, 2-(2-chlorophenyl)-5-(p-tolyl)-1,3,4-oxadiazole], the EC50 on ERRα and at ERRγ was below 1000 nM in each case. `COc1cccc(-c2nnc(-c3ccc(C)cc3)o2)c1` [Entry 41, 2-(3-methoxyphenyl)-5-(p-tolyl)-1,3,4-oxadiazole]: the 50% effective concentration (EC50) at ERRα and at ERRγ was below 1000 nM throughout. For `COc1ccc(-c2nnc(-c3ccc(C)cc3)o2)cc1` [Entry 42, 2-(4-methoxyphenyl)-5-(p-tolyl)-1,3,4-oxadiazole], the EC50 at ERRα and on ERRγ was below 1000 nM in each case. Compound `O=[N+]([O-])c1ccc(-c2nnc(-c3cccc(C(F)(F)F)c3)o2)cc1` [Entry 64, 2-(4-nitrophenyl)-5-(3-(trifluoromethyl)phenyl)-1,3,4-oxadiazole] registered an EC50 on ERRγ above 5000 nM.
